Like-named read-outs stand apart in the source and are kept apart here.
Tests used:
N. europaea = assay: Oxygen (O2) uptake of N. europaea cell suspension; type: cell-based, Nitrosomonas europaea; conditions: FIG. 12, cells at 0.5 mg/mL total protein, thiram 4 μM, nitrapyrin and formulations 100 μM
Experimental: 1.5 L of cell culture suspension containing N. europaea bacteria (ATCC #19718) was resuspended into a phosphate buffer (0.1M NaPB, 2 mM Mg SO4, pH of 7.5). The amount of N. europaea protein was quantified using a Biuret assay.
To a buffer solution containing 10 μM of (NH4)2SO4 in a total reaction volume of 5 mL was added 0.25 mg/mL of the N. europaea containing cell suspension. The N. europaea protein content varied (e.g., 0.25 mg/mL, 0.3 mg/mL or 0.5 mg/mL total protein). Measurements of O2 present in the reaction medium were taken immediately after the addition of the cell suspension to the buffer solution for and were taken continuously over a certain time period.
Test compounds and formulations included 4 μM thiram, 100 μM nitrapyrin, 100 μM of formulation 2, 100 μM of formulation 3, 100 μM of formulation 4, 100 μM of formulation 2 plus 4 μM thiram, 100 μM of formulation 3 plus 4 μM thiram; and 100 μM of formulation 4 plus 4 μM, and thiram, untreated N. europaea assay served as the control.
Results are typically plotted as a function of measured oxygen (i.e., the amount of dissolved oxygen) in solution over time to generate a inhibition curve (FIG. 11). Measurements of the area under the inhibition curve can provide a bar chart showing the oxygen consumption of N. europaea of the entire testing period.

Nitrosomonas europaea = assay: Inhibition of nitrite generation by N. europaea cell suspension (Griess reagent, absorbance 548 nm); type: cell-based; conditions: thiram 4 μM, relative to zero inhibitor control, read-out: % control (percent control of nitrification inhibition), observed
Experimental: 1.5 L of cell culture suspension containing Nitrosomonas europaea (N. europaea) bacteria (ATCC #19718) was resuspended into a phosphate buffer (0.1M NaPB, 2 mM Mg SO4, pH of 7.5). The amount of N. europaea protein was quantified using a Biuret assay. A sample of the cell culture suspension containing about 0.3 mg/mL, 0.25 mg/mL, or 0.5 mg/mL of N. europaea protein was incubated with 50 μL of (NH4)2SO4 in a total reaction volume of 5 mL. The test measured inhibition for treatment rates of 4 μM thiram, 100 μM nitrapyrin, 100 μM of formulation 2 (form.2), formulation 3 (form.3), formulation 4 (form.4) and 100 μM of formulation 2 (form.2) plus 4 μM thiram, 100 μM of formulation 3 (form.3) plus 4 μM thiram and 100 μM of formulation 4 (form.4) plus 4 μM thiram; an untreated N. europaea assay served as the control. At time points 0, 30, and 60 minutes post addition of (NH4)2SO4, an aliquot of 500 μL was removed from the reaction mixture and was incubated for 30 minutes with 500 μL of Griess Reagent in the dark followed by measuring the absorbance at 548 nm for the presence or absence of nitrite. The percent of nitrification inhibition was calculated based on the relative percentage of nitrite measurement against the zero inhibitor control measurement (see FIGS. 2-4 showing the percent control of nitrification inhibition). […]

SMILES | inhibition of oxygen consumption by N. europaea (N. europaea) | inhibition at 4 µM (N. europaea; Nitrosomonas europaea, read-out: inhibition of oxygen consumption by N. europaea) | inhibition at 4 µM (Nitrosomonas europaea; 0.5 h, 30 min after (NH4)2SO4, formulation 100 μM) | inhibition at 4 µM (Nitrosomonas europaea; 1 h, 60 min after (NH4)2SO4, formulation 100 μM)
Clc1cccc(C(Cl)(Cl)Cl)n1 [nitrapyrin, 2-chloro-6-(trichloromethyl)-pyridine] | did not inhibit | – | – | –
CN(C)C(=S)SSC(=S)N(C)C [Thiram] | – | 20% | 77.7 ± 1% | 77.3 ± 1.2%

Source: patent US20230059705A1, “NITRIFICATION INHIBITOR FUNGICIDE COMPOSITION AND USE THEREOF” (Verdesian Life Sciences U.S., LLC, priority 2019, published 2023)
